From patent publication US20240279231A1, “MAP4K4 INHIBITORS AND METHODS OF SYNTHESIS AND USE THEREOF” (The Board of Regents of the University of Oklahoma, priority 2021, published 2024)

Columns and labels:
[1] = Stability on reflux in dioxane-HCl; assay type: physicochemical; conditions: refluxed in dioxane-HCl for 6 h
Protocol: (§1) First, we attempted base-catalyzed O-alkylation in a variety of conditions (Table 1). […] We also screened various solvents combined with different bases to get DMX-5804. […] However, DMX-5804 was obtained only in small amounts (5-7%), whereas compound 7 was isolated as the major product (88%). To check the stability of compound 7, we refluxed it in dioxane-HCl for 6 h. […] Also, its HPLC retention time was identical to that of DMX-5804 (data not shown).

[2] = biological target: T1, recombinant MAP4K4 enzyme (Homo sapiens, UniProt O95819); assay: MAP4K4 inhibition assay (cell free, MBP substrate, ADP detection); assay type: biochemical; conditions: for IC50: recombinant MAP4K4, MBP substrate, 48 μM ATP, compounds titrated from 900 nM, read-out: concentration for 50% inhibition of MAP4K4 (IC50)
T1 construct: purchased BioAssay Systems Services (Hayward, CA)
T1 sequence (O95819 whole entry): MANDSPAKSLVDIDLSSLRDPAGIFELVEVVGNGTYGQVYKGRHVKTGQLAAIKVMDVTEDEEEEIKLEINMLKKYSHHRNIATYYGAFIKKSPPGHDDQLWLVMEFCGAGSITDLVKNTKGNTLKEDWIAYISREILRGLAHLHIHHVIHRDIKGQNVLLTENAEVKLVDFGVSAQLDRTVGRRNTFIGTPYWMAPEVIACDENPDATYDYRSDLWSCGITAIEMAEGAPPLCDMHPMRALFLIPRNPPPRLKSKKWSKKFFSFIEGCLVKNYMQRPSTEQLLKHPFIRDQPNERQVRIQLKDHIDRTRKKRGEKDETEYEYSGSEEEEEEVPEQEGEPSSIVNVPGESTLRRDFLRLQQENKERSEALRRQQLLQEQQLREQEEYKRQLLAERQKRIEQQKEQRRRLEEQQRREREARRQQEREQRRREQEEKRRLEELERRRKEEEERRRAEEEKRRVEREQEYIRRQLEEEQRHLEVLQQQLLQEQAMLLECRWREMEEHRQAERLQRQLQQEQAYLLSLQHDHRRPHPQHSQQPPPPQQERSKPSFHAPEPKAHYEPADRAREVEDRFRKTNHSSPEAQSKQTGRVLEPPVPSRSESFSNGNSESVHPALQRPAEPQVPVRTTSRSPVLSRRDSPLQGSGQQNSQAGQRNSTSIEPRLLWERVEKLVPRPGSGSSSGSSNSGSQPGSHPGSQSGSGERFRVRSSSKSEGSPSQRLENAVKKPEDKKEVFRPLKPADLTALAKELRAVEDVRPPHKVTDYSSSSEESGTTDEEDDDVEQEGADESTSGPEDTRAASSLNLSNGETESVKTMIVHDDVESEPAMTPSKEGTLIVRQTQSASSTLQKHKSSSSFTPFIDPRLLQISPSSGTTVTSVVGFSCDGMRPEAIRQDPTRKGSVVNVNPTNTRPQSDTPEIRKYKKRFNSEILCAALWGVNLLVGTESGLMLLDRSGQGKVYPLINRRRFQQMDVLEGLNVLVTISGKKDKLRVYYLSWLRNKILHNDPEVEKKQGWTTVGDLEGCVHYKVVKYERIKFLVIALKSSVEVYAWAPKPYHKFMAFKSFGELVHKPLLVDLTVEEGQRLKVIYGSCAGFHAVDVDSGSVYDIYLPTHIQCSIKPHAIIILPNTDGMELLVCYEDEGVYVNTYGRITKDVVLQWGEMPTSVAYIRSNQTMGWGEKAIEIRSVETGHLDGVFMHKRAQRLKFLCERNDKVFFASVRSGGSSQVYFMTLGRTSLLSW
Protocol: MAP4K4 inhibition assay: MAP4K4 assay for IC50 determination was performed using a kit by BioAssay Systems Services (Hayward, CA). Briefly, MAP4K4 in assay buffer (40 ng in 10 μL) was incubated with varying concentrations of test compounds (5 μL in dimethylsulfoxide) for 15 min at 37° C. The compounds were titrated from 900 nM (final reaction concentration) in 3× steps. Compound dilutions were made in assay buffer with 0.036% dimethylsulfoxide. Reactions were initiated by adding 5 μL reaction mix (2.6 μg/μL MBP, 193 μM ATP; final reaction concentration of 13 μg MBP, 48 μM ATP) and run at 37° C. for 20 min. These kinase reactions were stopped with an ADP detection reagent and fluorescence was measured at 530Ex/590Em. IC50 was computed using GraphPad Prism Nonlinear Sigmoidal Dose-Response fitting.
MAP4K4 inhibition assay: The MAP4K4 inhibitory activity of DMX-5804, Ribose-analog 9, and regio-isomer 7 were examined in a cell free assay using recombinant MAP4K4 enzyme and myelin basic protein (MBP) as its substrate.

[3] = Solubility in polar solvents; assay type: physicochemical; conditions: compared with DMX-5804
Protocol: as §1

[4] = compared with F1386-0303; cited from earlier work
cardiomyocyte = conditions: oxidative stress-induced, in vitro and in vivo; cited from earlier work
[5] = mouse infarct model; cited from earlier work
[6] = Solubility in aqueous medium; assay type: physicochemical
From the text: In order to shift alkylation to desired phenolic site, we changed reaction conditions to acidic by using boron trifluoride diethyl etherate as a Lewis acid (entries 9-11 of Table 1). […] Hypothesizing that the relatively low separated yields of this reaction are due to the insolubility of phenolic derivative in dichloromethane, we decided to perform this reaction in neat conditions with BF3OEt2. This modification produced satisfactory yields of DMX-5804 (entry 10). Further, we added excess of methylglycol as a solvent as well as a reactant in presence of BF3OEt2 to obtain quantitative yields of DMX-5804 in good time (entry 11). In these acidic conditions, the other regioisomer (pyrimidine alkylated compound 7) was completely absent. Previously, the use of BF3OEt2 for phenolic alkylation has been reported. In addition to the compound DMX-5804, we employed this route for synthesis of ribose- and glucose-conjugated analogs. […]

| SMILES | stability in acidic conditions [1] | melting point [°C] | MAP4K4 inhibitory activity ([2]; concentration range tested (titrated from 900 nM in 3× steps)) | solubility in polar solvents [3] | IC50 [2] [nM] | bioavailability in vivo [4] | cardiomyocyte death (cardiomyocyte) | infarct size [5] | solubility in aqueous medium [6] |
| --- | --- | --- | --- | --- | --- | --- | --- | --- | --- |
| COCCOc1ncnc2c1c(-c1ccc(O)cc1)cn2-c1ccccc1 (single isomer, unassigned) [Compound 7, 4-(4-(2-methoxyethoxy)-7-phenyl-7H-pyrrolo[2,3-d]pyrimidin-5-yl)phenol] | stable in acidic conditions | 221 to 224 | no inhibitory activity in the concentration range tested | significantly better than DMX-5804 |  |  |  |  |  |
| O=c1[nH]cnc2c1c(-c1ccc(OC3OC(CO)C(O)C3O)cc1)cn2-c1ccccc1 (stereo not shown) [Compound 9, 5-(4-((3,4-dihydroxy-5-(hydroxymethyl)tetrahydrofuran-2-yl)oxy)phenyl)-7-phenyl-3,7-dihydro-4H-pyrrolo[2,3-d]pyrimidin-4-one] |  |  |  |  | 256 |  |  |  |  |
| COCCOc1ccc(-c2cn(-c3ccccc3)c3nc[nH]c(=O)c23)cc1 [DMX-5804, 5-(4-(2-methoxyethoxy)phenyl)-7-phenyl-3,7-dihydro-4H-pyrrolo[2,3-d]pyrimidin-4-one] |  |  |  |  | 206 | better bioavailability in vivo than F1386-0303 | reduces cardiomyocyte death both in vitro and in vivo | significant reduction of infarct size | virtually insoluble |
